Experimental data published in patent publication US20230141600A1, “IMIDAZOPYRAZINE DERIVATIVES” (priority 2020, published 2023).
Where two headings read alike, the source gives them in different places.

Test system: Acinetobacter baumannii ATCC 17978
Assay: Minimal inhibitory concentration (MIC) determination, broth microdilution (CLSI M07-A10)
Format: cell-based
Description: Minimal Inhibitory Concentration (MIC) and MIC90 Determination:
The MIC of antibacterial compounds against multiple species and strains was determined using the broth microdilution method according to M07-A10 Clinical and Laboratory Standards Institute (CLSI) guidelines (CLSI (2015) Methods for dilution antimicrobial susceptibility tests for bacteria that grow aerobically; Approved Standard, Tenth Edition. CLSI Document M7-A10 (ISBN 1-56238-987-4). Wayne, Pa.: Clinical and Laboratory Standards Institute, 19087, USA), using the appropriate broth medium. In short, the compound plates were prepared by dispensing 100 μl of each stock solution in the first well of a 96 well microtiter plate (MTP) at a concentration 100-fold higher than the final concentration desired in broth. Eleven serial 2-fold dilutions of the highest concentration were made in DMSO for new compounds and in water (or appropriate solution) for reference compounds (CLSI (2017) Performance Standards for Antimicrobial Susceptibility Testing; […] Informational Supplement. CLSI Document M100-S27, CLSI, Wayne, Pa. 19087, USA). 1 μL of each well was transferred in a new MTP, which served as the test plate by subsequent inoculation. This bacterial suspension was prepared from strains that were first sub-cultured on agar plates and incubated for 18-24 hours as appropriate. Following incubation, the inoculum was prepared from isolated colonies and adjusted to 0.5 McFarland turbidity standard (1 to 2×10^8 Colony Forming Units (CFU)/mL) in 0.9% saline. The bacterial suspension was then diluted 1:200 in appropriate sterile medium and within 15 minutes 100 μL/well were dispensed. Negative controls (lack of bacterial cells) and growth control wells (lack of compound) were included in all plates. MTPs were incubated for 18-24 hours at 35±2° C. in ambient air. The MIC value of each compound, expressed as μg/mL, was determined as the lowest concentration required for complete growth inhibition (no visible growth). MIC90 and MIC50 values were defined as the lowest concentration of the antibacterial compound at which 90% and 50% of the strains were inhibited.
Table 3 provides the MIC's of particular compounds of the present invention obtained against the strain Acinetobacter baumannii ATCC 17978, expressed as μg/mL.

[1] = ATCC17978, lowest concentration for complete growth inhibition, 18-24 hours at 35±2° C., read-out: ATCC 17978 MIC

SMILES | MIC [1] | MIC (ATCC17978, read-out: ATCC 17978 MIC)
CCc1cc(Nc2nccn3c(-c4ccc(OC(F)F)c(F)c4F)cnc23)ccc1C(=O)N[C@@H](C)CNC(=O)C1CC[N+](C)(CC2CNC2)CC1.O=C[O-] (stereo partly drawn) [Example 114, 1-(Azetidin-3-ylmethyl)-N-[(2S)-2-[[4-[[3-[4-(difluoromethoxy)-2,3-difluoro-phenyl]imidazo[1,2-a]pyrazin-8-yl]amino]-2-ethyl-benzoyl]amino]propyl]-1-methyl-piperidin-1-ium-4-carboxamide Formate] | 17.8 µg/mL | 
CCc1cc(Nc2nccn3c(-c4ccc(OC(F)F)c(F)c4F)cnc23)ccc1C(=O)N1CCC(C(=O)N2CC3(C2)C[N+](C)(CC2CNC2)C3)CC1.O=C([O-])C(F)(F)F.O=CO [Example 99, [4-[2-(azetidin-3-ylmethyl)-2-methyl-6-aza-2-azoniaspiro[3.3]-6-carbonyl]-1-piperidyl]-[4-[[3-[4-(difluoromethoxy)-2,3-difluoro-phenyl]imidazo[1,2-a]pyrazin-8-yl]amino]-2-ethyl-phenyl]methanone formic acid 2,2,2-trifluoroacetate (Mixed Salt)] | 0.92 µg/mL | 
CCc1cc(Nc2nccn3c(-c4ccc(OC(F)F)c(F)c4F)cnc23)ccc1C(=O)N1CCC(C(=O)N2CC3CC(C2)[N+]3(C)CC2CNC2)CC1.O=C(O)C(F)(F)F.O=C([O-])C(F)(F)F.O=CO (stereo not shown) [Example 101, [4-[6-(Azetidin-3-ylmethyl)-6-methyl-3-aza-6-azoniabicyclo[3.1.1]heptane-3-carbonyl]-1-piperidyl]-[4-[[3-[4-(difluoromethoxy)-2,3-difluoro-phenyl]imidazo[1,2-a]pyrazin-8-yl]amino]-2-ethyl-phenyl]methanone formate 2,2,2-trifluoroacetate (Mixed Salt)] |  | 1.84 µg/mL
CCc1cc(Nc2nccn3c(-c4ccc(OC(F)F)c(F)c4F)cnc23)ccc1C(=O)N1CCC(C(=O)N2C[C@@H]3C[C@H]2C[N+]3(C)CC2CNC2)CC1.O=C([O-])C(F)(F)F.O=CO (mixture of isomers) [Example 100, [4-[[3-[4-(Difluoromethoxy)-2,3-difluoro-phenyl]imidazo[1,2-a]pyrazin-8-yl]amino]-2-ethyl-phenyl]-[4-[rac-(1S,4S)-5-(azetidin-3-ylmethyl)-5-methyl-2-aza-5-azoniabicyclo[2.2.1]heptane-2-carbonyl]-1-piperidyl]methanone; formic acid; 2,2,2-trifluoroacetate (Mixed Salt)] | 1.84 µg/mL | 
CCc1cc(Nc2nccn3c(-c4ccc(Oc5cnn(C)n5)c(F)c4F)cnc23)ccc1C(=O)NCC1CC[N+](C)(CC2CCNC2)CC1.O=C[O-] (stereo not shown) [Example 6, 4-[[3-[2,3-difluoro-4-(2-methyltriazol-4-yl)oxy-phenyl]imidazo[1,2-a]pyrazin-8-yl]amino]-2-ethyl-N-[[1-methyl-1-(pyrrolidin-3-ylmethyl)piperidin-1-ium-4-yl]methyl]benzamide Formate] | 8.57 µg/mL | 
CCc1cc(Nc2nccn3c(-c4ccc(OC)c(F)c4F)cnc23)ccc1C(=O)NCC[N+]1(C)CCC(C(N)=O)C1.O=C([O-])C(F)(F)F (stereo not shown) [Example 144, 1-[2-[[4-[[3-(2,3-Difluoro-4-methoxy-phenyl)imidazo[1,2-a]pyrazin-8-yl]amino]-2-ethyl-benzoyl]amino]ethyl]-1-methyl-pyrrolidin-1-ium-3-carboxamide 2,2,2-trifluoroacetate] | 3.62 µg/mL | 
CCc1cc(Nc2nccn3c(-c4ccc(OC(F)F)c(F)c4F)cnc23)ccc1C(=O)N1CCC(C(=O)NCC2CC[N+](C)(CC3CNC3)C2)CC1.O=C([O-])C(F)(F)F.O=CO (stereo not shown) [Example 98, N-[[1-(Azetidin-3-ylmethyl)-1-methyl-pyrrolidin-1-ium-3-yl]methyl]-1-[4-[[3-[4-(difluoromethoxy)-2,3-difluoro-phenyl]imidazo[1,2-a]pyrazin-8-yl]amino]-2-ethyl-benzoyl]piperidine-4-carboxamide formate/2,2,2-trifluoroacetate (Mixed Salt)] | 0.92 µg/mL | 
